Among the data in PubChem BioAssay AID1259407 (Chemical Carcinogenesis Research Information System (CCRIS), 2018) are mutagenic call values, retold here.

Calls of active or inactive are those of the source. The rule behind the calls is not given here.

The test system of the data set is CCRIS mutagenicity, Ames/micronucleus/aberration tests. Briefly: CCRIS mutagenicity studies.
[1] abbreviates: Test System: AMES SALMONELLA TYPHIMURIUM, Strain/Indicator: TA98, Metabolic Activation: NONE, Method: PREINCUBATION
[2] abbreviates: Test System: AMES SALMONELLA TYPHIMURIUM, Strain/Indicator: TA100, Metabolic Activation: NONE, Method: PREINCUBATION
Where [3] appears, read: Test System: AMES SALMONELLA TYPHIMURIUM, Strain/Indicator: TA98, Metabolic Activation: NONE, Method: STANDARD PLATE.

With `CC(C)(C)c1ccc(O)c(O)c1`, the mutagenic call was “inactive; negative” (Test System: AMES SALMONELLA TYPHIMURIUM, Strain/Indicator: TA97, Metabolic Activation: HAMSTER LIVER S-9, AROCLOR 1254 (10% OR 30%), Method: PREINCUBATION); “inactive; negative” (Test System: AMES SALMONELLA TYPHIMURIUM, Strain/Indicator: TA97, Metabolic Activation: NONE, Method: PREINCUBATION); “inactive; negative” (Test System: AMES SALMONELLA TYPHIMURIUM, Strain/Indicator: TA97, Metabolic Activation: RAT LIVER S-9, AROCLOR 1254 (10% OR 30%), Method: PREINCUBATION); “inactive; negative” (Test System: AMES SALMONELLA TYPHIMURIUM, Strain/Indicator: TA98, Metabolic Activation: HAMSTER LIVER S-9, AROCLOR 1254 (10% OR 30%), Method: PREINCUBATION); “inactive; negative” under setting [1]; “inactive; negative” (Test System: AMES SALMONELLA TYPHIMURIUM, Strain/Indicator: TA98, Metabolic Activation: RAT LIVER S-9, AROCLOR 1254 (10% OR 30%), Method: PREINCUBATION). Also, the mutagenic call reads like this: (Test System: AMES SALMONELLA TYPHIMURIUM, Strain/Indicator: TA100, Metabolic Activation: HAMSTER LIVER S-9, AROCLOR 1254 (10% OR 30%), Method: PREINCUBATION) “inactive; negative”; under setting [2], “inactive; negative”; (Test System: AMES SALMONELLA TYPHIMURIUM, Strain/Indicator: TA100, Metabolic Activation: RAT LIVER S-9, AROCLOR 1254 (10% OR 30%), Method: PREINCUBATION) “inactive; negative”; (Test System: AMES SALMONELLA TYPHIMURIUM, Strain/Indicator: TA102, Metabolic Activation: HAMSTER LIVER S-9, AROCLOR 1254 (10% OR 30%), Method: PREINCUBATION) “inactive; negative”; (Test System: AMES SALMONELLA TYPHIMURIUM, Strain/Indicator: TA102, Metabolic Activation: NONE, Method: PREINCUBATION) “inactive; negative”; (Test System: AMES SALMONELLA TYPHIMURIUM, Strain/Indicator: TA102, Metabolic Activation: RAT LIVER S-9, AROCLOR 1254 (10% OR 30%), Method: PREINCUBATION) “inactive; negative”. The mutagenic call reads like this: (Test System: AMES SALMONELLA TYPHIMURIUM, Strain/Indicator: TA104, Metabolic Activation: HAMSTER LIVER S-9, AROCLOR 1254 (10% OR 30%), Method: PREINCUBATION) “inactive; negative”; (Test System: AMES SALMONELLA TYPHIMURIUM, Strain/Indicator: TA104, Metabolic Activation: NONE, Method: PREINCUBATION) “inactive; negative”; (Test System: AMES SALMONELLA TYPHIMURIUM, Strain/Indicator: TA104, Metabolic Activation: RAT LIVER S-9, AROCLOR 1254 (10% OR 30%), Method: PREINCUBATION) “inactive; negative”; (Test System: AMES SALMONELLA TYPHIMURIUM, Strain/Indicator: TA1535, Metabolic Activation: HAMSTER LIVER S-9, AROCLOR 1254 (10% OR 30%), Method: PREINCUBATION) “inactive; negative”; (Test System: AMES SALMONELLA TYPHIMURIUM, Strain/Indicator: TA1535, Metabolic Activation: NONE, Method: PREINCUBATION) “inactive; negative”; (Test System: AMES SALMONELLA TYPHIMURIUM, Strain/Indicator: TA1535, Metabolic Activation: RAT LIVER S-9, AROCLOR 1254 (10% OR 30%), Method: PREINCUBATION) “inactive; negative”.
Take `c1ccc2c(c1)-c1cccc3cc4ccccc4c-2c13`: the mutagenic call was “inactive; negative” under setting [3]; “inactive; negative” (Test System: AMES SALMONELLA TYPHIMURIUM, Strain/Indicator: TA98, Metabolic Activation: RAT, LIVER, S-9, AROCLOR 1254, Method: STANDARD PLATE); “active; positive” (Test System: AMES SALMONELLA TYPHIMURIUM, Strain/Indicator: TA100, Metabolic Activation: RAT, LIVER, S-9, AROCLOR 1254, Method: STANDARD PLATE).
Consider `c1ccc2nc3c4ccccc4c4ccccc4c3cc2c1`, for which, for the setting “Test System: AMES SALMONELLA TYPHIMURIUM, Strain/Indicator: TA100, Metabolic Activation: RAT, LIVER, S-9, PHENOBARBITAL AND 5,6-BENZOFLAVONE, Method: STANDARD PLATE”, the mutagenic call is “active; positive”.
In the case of `COc1ccc2nc3occc3c(OC)c2c1`, the mutagenic call was “active; positive” (Test System: AMES SALMONELLA TYPHIMURIUM, Strain/Indicator: TA98, Metabolic Activation: RAT, LIVER, S-9, PHENOBARBITAL, Method: STANDARD PLATE) and “active; positive” (Test System: AMES SALMONELLA TYPHIMURIUM, Strain/Indicator: TA100, Metabolic Activation: RAT, LIVER, S-9, PHENOBARBITAL, Method: STANDARD PLATE).
As for `Cc1nc2ccc3ccc4ccc(O)cc4c3c2n1C`, the mutagenic call (Test System: AMES SALMONELLA TYPHIMURIUM, Strain/Indicator: TA98, Metabolic Activation: RAT, LIVER, S-9, AROCLOR, Method: STANDARD PLATE) is “active; positive”.
Take `CC(=O)Nc1ccnc2ccccc12`: the mutagenic call under setting [1] was “inactive; negative”; the mutagenic call (Test System: AMES SALMONELLA TYPHIMURIUM, Strain/Indicator: TA98, Metabolic Activation: RAT, LIVER, S-9, KANECHLOR 500, Method: PREINCUBATION) was “inactive; negative”; the mutagenic call under setting [2] was “inactive; negative”; the mutagenic call (Test System: AMES SALMONELLA TYPHIMURIUM, Strain/Indicator: TA100, Metabolic Activation: RAT, LIVER, S-9, KANECHLOR 500, Method: PREINCUBATION) is “inactive; negative”.
`Clc1ccc(C(c2ccccc2Cl)C(Cl)Cl)cc1` (centres undefined): the mutagenic call was “inactive; negative” (End Point: IN VITRO CHROMOSOMAL ABERRATIONS, Test System: CHINESE HAMSTER OVARY CELLS, Metabolic Activation: NONE); “inactive; negative” (End Point: IN VITRO CHROMOSOMAL ABERRATIONS, Test System: CHINESE HAMSTER OVARY CELLS, Metabolic Activation: RAT, LIVER, S-9, AROCLOR 1254); “inactive; negative” (Test System: AMES SALMONELLA TYPHIMURIUM, Strain/Indicator: TA98, Metabolic Activation: MOUSE, LIVER, S-9, Method: STANDARD PLATE); “inactive; negative” under setting [3]; “inactive; negative” (Test System: AMES SALMONELLA TYPHIMURIUM, Strain/Indicator: TA98, Metabolic Activation: RAT, LIVER, S-9, Method: STANDARD PLATE); “inactive; negative” (Test System: AMES SALMONELLA TYPHIMURIUM, Strain/Indicator: TA100, Metabolic Activation: MOUSE, LUNG, S-9, Method: STANDARD PLATE). Further, the mutagenic call reads like this: (Test System: AMES SALMONELLA TYPHIMURIUM, Strain/Indicator: TA100, Metabolic Activation: NONE, Method: STANDARD PLATE) “inactive; negative”; (Test System: AMES SALMONELLA TYPHIMURIUM, Strain/Indicator: TA100, Metabolic Activation: RAT, LIVER, S-9, Method: STANDARD PLATE) “inactive; negative”; (Test System: UDS RODENT HEPATOCYTES, Strain/Indicator: THY INCORP (NON-S-PHASE), Metabolic Activation: NONE, Method: LIQUID SCINTILLATION COUNTING) “inactive; negative”; (Test System: UDS RODENT LUNG CELLS, Strain/Indicator: THY INCORP (NON-S-PHASE), Metabolic Activation: NONE, Method: LIQUID SCINTILLATION COUNTING) “active; positive”.
